Legend:
[1] = target: T1, recombinant UDP-glucuronosyltransferase 2B7 (Homo sapiens, UniProt P16662); experiment: In vitro glucuronidation of lysophosphatidic acids by recombinant UGT2B7 expressed in HK293 cells; assay type: in vitro ADME; conditions: for Glucuronidation by UGT2B7 (in words): recombinant UGT2B7, FIG. 9A
T1 construct: made in house
T1 sequence (P16662 24-529): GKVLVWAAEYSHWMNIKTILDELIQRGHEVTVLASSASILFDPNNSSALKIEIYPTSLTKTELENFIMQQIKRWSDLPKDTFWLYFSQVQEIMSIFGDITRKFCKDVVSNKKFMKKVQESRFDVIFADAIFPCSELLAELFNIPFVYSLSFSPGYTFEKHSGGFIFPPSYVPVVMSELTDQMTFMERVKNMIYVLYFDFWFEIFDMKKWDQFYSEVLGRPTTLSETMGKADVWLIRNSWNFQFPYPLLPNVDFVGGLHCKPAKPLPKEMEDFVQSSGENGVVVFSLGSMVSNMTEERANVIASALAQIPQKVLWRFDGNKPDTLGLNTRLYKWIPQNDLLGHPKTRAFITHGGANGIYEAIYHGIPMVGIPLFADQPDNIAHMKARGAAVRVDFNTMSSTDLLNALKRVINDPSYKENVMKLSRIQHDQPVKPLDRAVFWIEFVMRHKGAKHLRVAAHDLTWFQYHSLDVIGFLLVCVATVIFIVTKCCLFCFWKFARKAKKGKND
Description: (§1) Reactions with substrates were run in duplicates.
(§2) Lysophosphatidic acid (LPA) stimulates lysophosphatidic acid receptors which in turn activate PKC and Ras-MAPK signalling pathways. Lysophosphatidic acid is a lipid second messenger involved in progression of malignant ovarian cancer. Cellular effects of lysophosphatidic acid accumulation include stimulation of cell proliferation, inhibition of apoptosis and increased invasiveness of cancer cells. It was hypothesized that anti-proliferative activity of UDP-glucuronosyltransferase 2B7 in the ovarian cancer cell model described above may be associated with inactivation of lysophosphatidic acid through glucuronidation. Thus, in vitro glucuronidation experiments on three different lysophosphatidic acid compounds (FIG. 10) was conducted using human liver microsomes and a recombinant UDP-glucuronosyltransferase 2B7 expressed in HK293 cells.

human liver microsomes = experiment: In vitro glucuronidation of lysophosphatidic acids by human liver microsomes; assay type: in vitro ADME; conditions: for Glucuronidation by human liver microsomes (in words): FIG. 9A
Description: as §1, §2

Row | Glucuronidation by UGT2B7 (in words) [1] | Glucuronidation by human liver microsomes (in words) (human liver microsomes) | Specific activity of glucuronidation ([1]; recombinant UGT2B7 expressed in HK293 cells) [pmol/min/mg] | Specific activity of glucuronidation (human liver microsomes) [pmol/min/mg] | SMILES
1 | not | same activity profile | – | – | CCCCCCCCCCCCCCCC(=O)OC[C@@H](O)COP(=O)(O)O [palmitoyl-lysophosphatidic acid]
2 | actively glucuronidated | same activity profile | 250 | 560 | CCCCCCCC/C=C\CCCCCCCC(=O)OCC(O)COP(=O)(O)O (centres unmarked) [oleoyl-lysophosphatidic acid]
3 | not | same activity profile | – | – | CCCCCCCCCCCCCCCCCC(=O)OC[C@@H](O)COP(=O)(O)O [stearoyl-lysophosphatidic acid]

Reference: US7097992B2, “Uses of human UDP-glucuronosyltransferase 2B7 to detect and treat cancer” (priority 2001, dated 2006)
